The target in assay [1] is PI3Kα (complex of human p110α and human p85α) (Homo sapiens (Human), UniProt P42336). Kind of assay: PI3Kα kinase assay (HTRF-based PI3K inhibition assay).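 On all read-outs here: PIP3 product detected by HTRF, reading resonance energy transfer from Europium-labeled anti-GST antibody to Streptavidin-APC, as displacement of biotinylated PIP3 tracer from the GST-PH domain complex.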 It counts as biochemical. Conditions: for inhibition at 0.93 µM: 0.93 μM compound, read-out: PI3K alpha average % Inhibition at 0.93 μM; for pIC50: 10 μM ATP, 10 μM PIP2, 20 min at 22° C., read-out: average IC50 in the PI3K alpha biochemical assay. On the technique in general: Time-resolved FRET reads energy transfer from a long-lived donor to a nearby acceptor.

Assay [2] concerns the target PI3Kβ (complex of human p110β and human p85α) (Homo sapiens (Human), UniProt P42338). Nature of the assay: PI3Kβ kinase assay (HTRF-based PI3K inhibition assay).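 On all read-outs here: Kinase-made PIP3 detected by HTRF, displacing biotinylated PIP3 tracer from a complex of Europium anti-GST antibody, GST-fused PH domain and Streptavidin-APC, read as Europium-to-APC energy transfer.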 It counts as biochemical. As to conditions: for inhibition at 0.93 µM: 0.93 μM compound, read-out: PI3K beta average % Inhibition at 0.93 μM; for pIC50: 10 μM ATP, 10 μM PIP2, 20 min at 22° C., read-out: average IC50 in the PI3K beta biochemical assay; for PI3K beta average IC50/PI3K alpha average IC50: ratio of beta IC50 to alpha IC50.
From the text: Determination of % Inhibition and IC50 Values of Compounds in PI3Kα Kinase Assay
PI3Kα inhibitory activity of compounds of the present invention was quantified employing the HTRF based PI3K inhibition assay as described below.
As reagents for the kinase reaction itself and the quantification of the reaction product, the PI3-Kinase HTRF Assay kit from Millipore (#33-017) was used. With this kit the phosphatidylinositol 3,4,5-trisphosphate (PIP3) generated in the kinase reaction is detected by displacement of a biotinylated ligand from an energy transfer complex consisting of a Europium-labeled anti-GST monoclonal antibody, a GST-tagged PH domain, biotinylated PIP3 and Streptavidin-Allophycocyanin (APC).
For the assay 50 nL of a 80-fold concentrated solution of the test compound in DMSO was pipetted into a black low volume 384-well microtiter plate (Greiner Bio-One, Frickenhausen, Germany), 3 μl of a solution of PI3Kβ and phosphatidylinositol-4,5-bisphosphate (PIP2, 13.8 μM=> final conc. in 4 μl reaction volume=10 μM) in 1× reaction buffer (exact composition not disclosed by the vendor) were added and the mixture was incubated for 15 min at 22° C. to allow pre-binding of the test compounds to the enzyme before the start of the kinase reaction. The amount of PI3Kβ was chosen to have the enzyme reaction in the linear range and depended on the activity of the individual lot, typical concentrations in assay were in the range of 120 ng/mL. Then the kinase reaction was started by the addition of 1 μL of a solution of adenosine triphosphate (ATP, 40 μM=> final conc. in the 4 μl assay volume is 10 μM) in reaction buffer and the resulting mixture was incubated for a reaction time of 20 min at 22° C.
The reaction was stopped by the addition of 1 μL of an stop solution (containing the biotinylated PIP3 used as a tracer). Then 1 μL detection mix (containing a Europium-labeled anti-GST monoclonal antibody, a GST-tagged PH domain, and Streptavidin-Allophycocyanin) was added and resulting mixture was incubated for 3 h at 22° C. to allow the formation of complexes between the detection reagents and either the PIP3 generated in the kinase reaction, or the biotinylated PIP3 added with the stop solution. Subsequently the amount of energy transfer complex consisting of a Europium-labeled anti-GST monoclonal antibody, a GST-tagged PH domain, biotinylated PIP3 and Streptavidin-Allophycocyanin (APC) was evaluated by measurement of the resonance energy transfer from the Europium-labeled anti-GST monoclonal antibody to the Streptavidin-Allophycocyanin. Therefore, the fluorescence emissions at 620 nm and 665 nm after excitation at 350 nm were measured using a TR-FRET reader, e.g., a Pherastar (BMG Labtechnologies, Offenburg, Germany) or a Viewlux (Perkin-Elmer). The ratio of the emissions at 665 nm and at 622 nm were taken as the measure for the amount of biotinylated PIP3 bound to the GST-tagged PH domain, which is negatively correlated with the amount of PIP3 generated.

pIC50: −log10 of the molar value.

Broadly, the inhibition is the drop in the measured response relative to a control, in per cent. In general, pIC50 refers to −log10 of the IC50, conventionally taken in molar units.

PI3Kα (complex of human p110α and human p85α), sequence (P42336 whole entry, the tested form may be a part): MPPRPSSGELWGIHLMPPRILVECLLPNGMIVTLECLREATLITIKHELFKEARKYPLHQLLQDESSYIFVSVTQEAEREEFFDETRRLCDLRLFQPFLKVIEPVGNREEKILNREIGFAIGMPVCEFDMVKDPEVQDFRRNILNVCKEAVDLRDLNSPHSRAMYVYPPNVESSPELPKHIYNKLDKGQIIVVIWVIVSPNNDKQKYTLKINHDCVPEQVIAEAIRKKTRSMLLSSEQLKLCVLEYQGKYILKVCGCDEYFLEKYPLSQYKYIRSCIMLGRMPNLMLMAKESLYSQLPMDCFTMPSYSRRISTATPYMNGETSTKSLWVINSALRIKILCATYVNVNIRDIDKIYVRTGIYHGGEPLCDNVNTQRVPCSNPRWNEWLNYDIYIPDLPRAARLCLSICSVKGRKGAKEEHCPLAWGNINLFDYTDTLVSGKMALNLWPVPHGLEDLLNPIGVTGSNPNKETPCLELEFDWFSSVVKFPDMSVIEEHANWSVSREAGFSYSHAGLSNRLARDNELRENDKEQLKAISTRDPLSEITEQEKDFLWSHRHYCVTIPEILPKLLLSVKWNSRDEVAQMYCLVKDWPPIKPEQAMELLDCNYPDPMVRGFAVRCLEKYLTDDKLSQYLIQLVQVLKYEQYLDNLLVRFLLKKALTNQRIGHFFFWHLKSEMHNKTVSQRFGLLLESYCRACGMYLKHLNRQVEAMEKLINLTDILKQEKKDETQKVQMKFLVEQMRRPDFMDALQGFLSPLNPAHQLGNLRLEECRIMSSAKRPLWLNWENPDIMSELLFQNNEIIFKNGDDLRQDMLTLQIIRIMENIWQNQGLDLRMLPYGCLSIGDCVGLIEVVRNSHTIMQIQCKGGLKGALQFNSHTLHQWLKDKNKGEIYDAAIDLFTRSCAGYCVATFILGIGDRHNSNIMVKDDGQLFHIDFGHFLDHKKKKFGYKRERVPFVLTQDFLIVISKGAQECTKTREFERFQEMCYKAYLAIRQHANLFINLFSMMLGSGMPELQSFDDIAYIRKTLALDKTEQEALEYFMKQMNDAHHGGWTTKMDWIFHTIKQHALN
PI3Kα (complex of human p110α and human p85α), sequence (P27986 whole entry partner, the tested form may be a part): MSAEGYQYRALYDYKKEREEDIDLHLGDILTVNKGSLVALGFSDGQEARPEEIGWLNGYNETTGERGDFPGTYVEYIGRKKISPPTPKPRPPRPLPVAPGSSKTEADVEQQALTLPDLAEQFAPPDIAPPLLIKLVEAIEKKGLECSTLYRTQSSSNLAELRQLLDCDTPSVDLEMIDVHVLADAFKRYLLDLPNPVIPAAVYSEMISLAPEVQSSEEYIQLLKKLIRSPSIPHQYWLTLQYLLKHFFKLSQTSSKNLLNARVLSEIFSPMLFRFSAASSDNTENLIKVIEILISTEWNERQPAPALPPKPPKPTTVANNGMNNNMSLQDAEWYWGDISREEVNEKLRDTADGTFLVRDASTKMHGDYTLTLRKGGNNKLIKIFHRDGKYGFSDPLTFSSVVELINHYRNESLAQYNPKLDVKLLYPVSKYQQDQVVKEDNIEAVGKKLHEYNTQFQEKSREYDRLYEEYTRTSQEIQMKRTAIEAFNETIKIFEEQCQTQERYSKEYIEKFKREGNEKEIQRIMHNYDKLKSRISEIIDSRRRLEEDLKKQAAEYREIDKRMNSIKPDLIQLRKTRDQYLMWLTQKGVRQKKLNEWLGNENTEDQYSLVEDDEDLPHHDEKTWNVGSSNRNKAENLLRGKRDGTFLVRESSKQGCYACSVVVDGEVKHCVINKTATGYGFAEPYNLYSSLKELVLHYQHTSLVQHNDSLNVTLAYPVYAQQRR
PI3Kβ (complex of human p110β and human p85α), sequence (P42338 whole entry, the tested form may be a part): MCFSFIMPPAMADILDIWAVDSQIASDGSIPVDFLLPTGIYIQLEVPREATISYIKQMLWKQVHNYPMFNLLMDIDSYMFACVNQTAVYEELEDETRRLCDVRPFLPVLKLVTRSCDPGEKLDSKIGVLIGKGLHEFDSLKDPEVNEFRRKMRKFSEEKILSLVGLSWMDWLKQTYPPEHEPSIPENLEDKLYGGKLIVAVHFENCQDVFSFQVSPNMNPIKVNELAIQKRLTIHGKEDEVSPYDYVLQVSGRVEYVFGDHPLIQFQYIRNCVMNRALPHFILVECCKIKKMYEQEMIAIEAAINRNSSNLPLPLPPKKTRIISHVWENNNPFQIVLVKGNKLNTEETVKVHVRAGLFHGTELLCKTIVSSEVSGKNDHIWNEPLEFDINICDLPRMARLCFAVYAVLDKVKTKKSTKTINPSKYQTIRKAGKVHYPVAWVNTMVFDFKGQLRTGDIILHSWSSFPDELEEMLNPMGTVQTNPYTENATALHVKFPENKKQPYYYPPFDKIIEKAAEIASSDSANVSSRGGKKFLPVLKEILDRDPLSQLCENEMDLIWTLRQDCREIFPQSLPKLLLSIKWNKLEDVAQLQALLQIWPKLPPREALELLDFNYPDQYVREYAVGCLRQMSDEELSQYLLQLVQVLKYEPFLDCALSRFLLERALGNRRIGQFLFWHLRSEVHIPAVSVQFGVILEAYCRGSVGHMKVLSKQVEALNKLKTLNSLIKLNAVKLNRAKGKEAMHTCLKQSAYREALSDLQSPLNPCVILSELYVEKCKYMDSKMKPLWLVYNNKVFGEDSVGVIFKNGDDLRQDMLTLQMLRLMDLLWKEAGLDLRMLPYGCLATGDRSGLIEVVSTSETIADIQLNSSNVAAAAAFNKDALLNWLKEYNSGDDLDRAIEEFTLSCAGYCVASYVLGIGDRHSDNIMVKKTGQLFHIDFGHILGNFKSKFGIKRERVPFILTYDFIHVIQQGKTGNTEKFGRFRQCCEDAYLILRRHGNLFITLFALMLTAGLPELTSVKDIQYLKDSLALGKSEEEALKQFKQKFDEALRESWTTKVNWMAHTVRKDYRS
PI3Kβ (complex of human p110β and human p85α), sequence (P27986 whole entry partner, the tested form may be a part): as the sequence (P27986 whole entry partner, the tested form may be a part) above

For `COc1c(OC[C@H](O)CN2CCC2)ccc2c1N=C(NC(=O)c1cncs1)N1CCN=C21` [Example 35, N-(8-{[(2R)-3-(Azetidin-1-yl)-2-hydroxypropyl]oxy}-7-methoxy-2,3-dihydroimidazo[1,2-c]quinazolin-5-yl)-1,3-thiazole-5-carboxamide], in assay [1], the inhibition at 0.93 µM is 109% and the pIC50 was more than 8.00. Moreover, in assay [2], the inhibition at 0.93 µM was determined as 102%, the pIC50 is 7.30 to 8.00 and the “PI3K beta average IC50/PI3K alpha average IC50” value was found to be 6.30.

For `COc1c(OC[C@H](O)CN2CCCC2)ccc2c1N=C(NC(=O)c1cncs1)N1CCN=C21` [Example 36, N-(8-{[(2R)-2-Hydroxy-3-(pyrrolidin-1-yl)propyl]oxy}-7-methoxy-2,3-dihydroimidazo[1,2-c]quinazolin-5-yl)-1,3-thiazole-5-carboxamide], in assay [1], the inhibition at 0.93 µM stood at 92.4% and the pIC50 was more than 8.00. Further, in assay [2], the inhibition at 0.93 µM stood at 93.9%, the pIC50 is 7.30 to 8.00 and the “PI3K beta average IC50/PI3K alpha average IC50” value is 3.41.

For the compound `COc1c(OC[C@H](O)CN2CCCCC2)ccc2c1N=C(NC(=O)c1cncs1)N1CCN=C21` [Example 37, N-(8-{[(2R)-2-Hydroxy-3-(piperidin-1-yl)propyl]oxy}-7-methoxy-2,3-dihydroimidazo[1,2-c]quinazolin-5-yl)-1,3-thiazole-5-carboxamide], in assay [1], the inhibition at 0.93 µM was determined as 103% and the pIC50 is more than 8.00. Moreover, in assay [2], the inhibition at 0.93 µM turned out to be 93.7%, the pIC50 is 7.30 to 8.00 and the “PI3K beta average IC50/PI3K alpha average IC50” value is listed as 2.98.

As for `COc1c(OC[C@H](O)CN2CCCC2)ccc2c1N=C(NC(=O)c1scnc1C)N1CCN=C21` [Example 38, N-(8-{[(2R)-2-Hydroxy-3-(pyrrolidin-1-yl)propyl]oxy}-7-methoxy-2,3-dihydroimidazo[1,2-c]quinazolin-5-yl)-4-methyl-1,3-thiazole-5-carboxamide], in assay [1], the inhibition at 0.93 µM came to 92.8% and the pIC50 was more than 8.00. For the same compound, in assay [2], the inhibition at 0.93 µM was determined as 95.1%, the pIC50 was more than 8.00 and the “PI3K beta average IC50/PI3K alpha average IC50” value is 5.64.

`COc1c(OC[C@H](O)CN2CCOCC2)ccc2c1N=C(NC(=O)c1sc(N)nc1C)N1CCN=C21` [Example 39, 2-Amino-N-(8-{[(2R)-2-hydroxy-3-(morpholin-4-yl)propyl]oxy}-7-methoxy-2,3-dihydroimidazo[1,2-c]quinazolin-5-yl)-4-methyl-1,3-thiazole-5-carboxamide]: in assay [1], the inhibition at 0.93 µM amounted to 110% and the pIC50 was more than 8.00. Further, in assay [2], the inhibition at 0.93 µM stood at 122%, the pIC50 was more than 8.00 and the “PI3K beta average IC50/PI3K alpha average IC50” value is recorded as 5.32.

In the case of `COc1c(OC[C@H](O)CN2CCCC2)ccc2c1N=C(NC(=O)c1cnco1)N1CCN=C21` [Example 40, N-(8-{[(2R)-2-Hydroxy-3-(pyrrolidin-1-yl)propyl]oxy}-7-methoxy-2,3-dihydroimidazo[1,2-c]quinazolin-5-yl)-1,3-oxazole-5-carboxamide], in assay [1], the inhibition at 0.93 µM came out at 88% and the pIC50 is less than 7.30. In assay [2], the inhibition at 0.93 µM is 72.7% and the pIC50 is less than 7.30.

For the compound `COc1c(OC[C@H](O)CN(C(C)C)C(C)C)ccc2c1N=C(NC(=O)c1cncs1)N1CCN=C21` [Example 41, N-(8-{[(2R)-3-(dipropan-2-ylamino)-2-hydroxypropyl]oxy}-7-methoxy-2,3-dihydroimidazo[1,2-c]quinazolin-5-yl)-1,3-thiazole-5-carboxamide], in assay [1], the inhibition at 0.93 µM stood at 95.7% and the pIC50 was more than 8.00. Besides, in assay [2], the inhibition at 0.93 µM was 99.3%, the pIC50 is 7.30 to 8.00 and the “PI3K beta average IC50/PI3K alpha average IC50” value was determined as 5.83.

(Values after patent publication US8895549B2, “Aminoalcohol substituted 2,3-dihydroimidazo[1,2-c]quinazoline derivatives useful for treating hyper-proliferative disorders and diseases associated with angiogenesis” (Bayer Intellectual Property GmbH, priority 2010, dated 2014).)
